The conditions of data set [1]: cited from earlier work.
For data set [2], the system named is sub-chronic PCP-induced deficit in novel object recognition. The data set is described as follows: Novel object recognition (NOR) test after sub-chronic PCP, animal model of schizophrenia. The class given is in vivo, rat (female hooded-Lister). The source says: The effect of PCP in the novel object recognition (NOR) test is a model of visual recognition memory deficits similar to those observed in schizophrenia. The atypical antipsychotics, clozapine and risperidone, can attenuate the deficit. The study was designed to determine if botanically derived purified CBDV and/or synthetic CBDV could attenuate the deficits in novel object recognition caused by administration of PCP.
Female hooded-Lister rats were used for this experiment. Rats were housed in groups of 5 under standard laboratory conditions under a 12 hr light: dark cycle, with lights on at 0700 hr. Testing was carried out in the light phase. Rats were randomly assigned to two treatment groups and treated with vehicle, n=15 (distilled water, i.p.) or Phencyclidine hydrochloride (PCP), n=75 (2 mg/kg, i.p. twice daily for 7-days). PCP was dissolved in distilled water. This was followed by a 7-day wash out period before the rats were tested following acute treatment with […], risperidone or vehicle. […]
Following the 3 minute habituation period, the rats are given two 3 minute trials (T1 and T2) which were separated by a 1 minute inter-trial interval in the home cage during which the objects were changed. Behavior in all trials was recorded on video for subsequent blind scoring. […]
The exploration time(s) of each object (A, B, familiar and novel) in each trial were recorded using two stopwatches and the following factors were calculated: total exploration time of both objects in the acquisition trial, total exploration time of both objects in the retention trial. Habituation of exploratory activity included the exploration time, as measured by the number of lines crossed, for both trials.
All data were assessed for normality using D'Agostino and Pearson normality test. Data non-normally distributed were analyzed using Kruskal-Wallis followed by planned comparisons with Dunn's correction. Normally distributed data were analyzed using one-way ANOVA followed by planned comparisons with Sidak's correction. […]

Data set [3] can be described thus: Autofluorescence emission scan (Ensight multimodal plate reader). Type of data set: physicochemical. The note with it: 100 mM. The method, then: (§1) Botanically derived purified CBDV (BOT) and Synthetic CBDV (SYN) were tested in duplicates at five concentrations of 0.1 mM, 0.5 mM, 1 mM, 50 mM and 100 mM in 100% DMSO or 100% Ethanol.
(§2) 200 μL of each sample or buffer were added into microplates in duplicate. Measurement has been performed on the Ensight multimodal plate reader (Perkin Elmer).
In order to confirm the emission peak of the test substance, an emission scan was performed using the excitation peaks identified after the excitation scan. The […] was set to start for botanically derived purified CBDV and synthetic CBDV at 20 nm above the tentative excitation values using a step increment of 2 nm. Wavelengths up to 800 nm were scanned for emission.
The wavelength giving the maximum emission for the samples was defined as the optimal emission wavelength for the chosen excitation wavelength.

Data set [4] in a line: Autofluorescence excitation scan (Ensight multimodal plate reader). The note with it: 100 mM; for excitation peak point (first, lower-wavelength peak) / excitation peak point (second, higher-wavelength peak) / fluorescence intensity at first excitation peak / fluorescence intensity at second excitation peak: ethanol as vehicle. Type of data set: physicochemical. The method, then: as §1, §2
An excitation scan was used to detect the excitation peak for each test substance. The excitation scan was set from 230 to 380 nm and below the emission wavelength of 400 nm. The excitation scan was also set from 230 to 420 nm and below the emission wavelength of 440 nm. In both cases, a step increment of 2 nm was used for these scans.
Based on these analyses, the peaks of excitation wavelengths for the two tentative emission wavelengths were determined and used to identify the optimal excitation wavelength/s.

Setting [5] is: DMSO as vehicle, excitation wavelength set at 328 nm.
Where [6] appears, read: DMSO as vehicle, excitation wavelength set at 334 nm.
Where [7] appears, read: DMSO as vehicle, excitation wavelength set at 344 nm.
[8] abbreviates: ethanol as vehicle, excitation wavelength set at 326 nm.
Setting [9] is: ethanol as vehicle, excitation wavelength set at 340 nm.
Where [10] appears, read: emission wavelength set at 400 nm.
[11] abbreviates: emission wavelength set at 440 nm.

Several values for one entry are separate records, joined by “and”; a condition that tells them apart may be missing. Equal entries are not always repeated.

On to `C=C(C)[C@@H]1CCC(C)=C[C@H]1c1c(O)cc(CCC)cc1O` [CBDV, 2-[(1R,6R)-3-Methyl-6-(1-methylethenyl)-2-cyclohexen-1-yl]-5-propyl-1,3-benzenediol], for which the “solubility in organic solvents” value in data set [1] (organic solvents) was “soluble”. Moreover, the solubility in water entry in data set [1] (water) was “insoluble”.

On to `C=C(C)[C@@H]1CCC(C)=C[C@H]1c1c(O)cc(CCC)cc1O` [synthetic CBDV, Cannabidivarin], for which, in data set [2] (70 kg human, rat dose x 0.16 x 70), the “human daily amount of CBDV corresponding to the rat MED” value is 224 mg/day. Also, in data set [2] (rat dose multiplied by 0.16 (FDA dose conversion guidance)), the “human equivalent dose of the rat MED” value was found to be 3.2 mg/kg/day. Also, the “minimal effective dose (MED) attenuating sub-chronic PCP-induced deficit in novel object recognition” value in data set [2] (rats, 2-20 mg/kg i.p., 60 min ppt, n=8-10 per group) is 20 mg/kg. In data set [3] (setting [5]), the emission peak point is 394 nm and the “fluorescence intensity at emission peak” value came out at 264597 au. For the same compound, in data set [3] (setting [6]), the emission peak point is on record as 392 nm and the “fluorescence intensity at emission peak” value came to 201880 au. Moreover, in data set [3] (setting [7]), the emission peak point is 390 nm and the “fluorescence intensity at emission peak” value was 158071 au. In data set [3] (setting [8]), the emission peak point is 390 nm and the “fluorescence intensity at emission peak” value worked out at 67541 au. Also, in data set [3] (setting [9]), the emission peak wavelength is recorded as 378 nm and the “fluorescence intensity at peak” value turned out to be 29009 au. Also, in data set [4] (setting [10]), the “excitation peak point (first, lower-wavelength peak)” value amounted to 282 nm; the “excitation peak point (second, higher-wavelength peak)” value was found to be 324 nm; the “fluorescence intensity at first excitation peak” value is 139797 au; the “fluorescence intensity at second excitation peak” value is 123100 au. In data set [4] (setting [11]), the “excitation peak point (first, lower-wavelength peak)” value came to 280 nm; the “excitation peak point (second, higher-wavelength peak)” value was found to be 326 nm; the “fluorescence intensity at first excitation peak” value is 39433 au; the “fluorescence intensity at second excitation peak” value is 41443 au. Moreover, in data set [4] (pure DMSO as vehicle, emission wavelength set at 400 nm), the excitation peak points is 282 nm and 326 nm.
